In US20230080054A1 (ILDONG PHARMACEUTICAL CO., LTD., priority 2021, published 2023):

Biological target: T1, human ANO6 (Homo sapiens, UniProt Q4KMQ2)
T1 construct: expressed in transfected cells
T1 sequence (Q4KMQ2 1-931 isoform Q4KMQ2-2): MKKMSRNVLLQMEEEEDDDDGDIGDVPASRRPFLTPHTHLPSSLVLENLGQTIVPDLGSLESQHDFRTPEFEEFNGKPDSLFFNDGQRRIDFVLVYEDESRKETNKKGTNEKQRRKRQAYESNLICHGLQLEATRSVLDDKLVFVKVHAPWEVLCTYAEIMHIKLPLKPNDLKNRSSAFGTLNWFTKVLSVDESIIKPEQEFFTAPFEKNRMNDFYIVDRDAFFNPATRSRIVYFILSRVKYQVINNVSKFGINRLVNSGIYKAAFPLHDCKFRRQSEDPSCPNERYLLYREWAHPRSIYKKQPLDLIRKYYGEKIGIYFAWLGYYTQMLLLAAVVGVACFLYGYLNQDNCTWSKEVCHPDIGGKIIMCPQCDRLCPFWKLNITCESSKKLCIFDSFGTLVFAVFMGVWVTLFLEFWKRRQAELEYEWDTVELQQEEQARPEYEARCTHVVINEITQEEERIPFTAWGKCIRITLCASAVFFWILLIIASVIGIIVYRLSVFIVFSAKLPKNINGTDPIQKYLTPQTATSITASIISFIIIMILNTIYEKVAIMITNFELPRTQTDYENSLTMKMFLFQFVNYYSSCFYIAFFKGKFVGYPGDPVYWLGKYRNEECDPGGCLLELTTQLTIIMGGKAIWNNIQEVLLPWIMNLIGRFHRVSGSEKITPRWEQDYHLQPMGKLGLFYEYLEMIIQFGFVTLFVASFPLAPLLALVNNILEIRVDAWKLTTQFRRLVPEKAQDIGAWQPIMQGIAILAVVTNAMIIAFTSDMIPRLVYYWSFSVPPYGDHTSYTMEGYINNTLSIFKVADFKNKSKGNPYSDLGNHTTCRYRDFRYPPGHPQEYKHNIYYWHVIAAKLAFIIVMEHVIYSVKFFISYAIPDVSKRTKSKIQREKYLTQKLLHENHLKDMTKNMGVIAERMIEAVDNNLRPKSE
Test: YFP quenching assay (ANO6 ion channel activity)
Type: cell-based
Details: 10 μM ionomycin; for inhibition at 1 µM: test compound 1 μM, read-out: Inhibition Level 1 μM; for inhibition at 30 µM: test compound 30 μM, read-out: Inhibition Level 30 μM
From the text: Example 3: YFP Quenching Assay
1. Materials and Instruments
Ionomycin (Alomonelab cat. #I-700), FLUOstar Omega microplate reader (BMG Labtech, Ortenberg, Germany), and MARS Data Analysis Software (BMG Labtech)
Fisher rat thyroid (FRT) cells stably expressing human ANO6 (GenBank accession no. NP_001191732.1, provided by J. H. Nam, Dongguk University College of Medicine, Korea) and halide sensor mutant YFP-H148Q/I152L/F46L) were constructed and grown in Dulbecco's modified Eagle's medium Nutrient Mixture F-12 (DMEM/F-12) supplemented 10% FBS, 100 units/mL penicillin, 500 μg/mL hygromycin B and 100 μg/mL neomycin.
Fisher rat thyroid (FRT) cells stably expressing human ANO6 and halide sensor mutant YFP (H148Q/I152L/F46L) were seeded in black walled 96 well plates and incubated in a 37° C., 5% CO2 incubator to reach about 100% cell confluency. Then, each well of the 96 well plates were washed for several times with phosphate buffered saline (PBS), and 50 μL of PBS was added to each well. Test compounds (100× in DMSO) were added to each well to be 1% v/v DMSO. After incubation for 10 minutes in 40° C., the 96 well plates were transferred to a plate reader, and YFP fluorescence changed by SCN-introduced into cells through activated ANO6 were measured by the following steps.
(1) YFP fluorescence signals were recorded in every 0.4 seconds.
(2) Basal YFP fluorescence signals were recorded for 1 second.
(3) 140 mM SCN-(50 μL) containing 10 μM ionomycin was injected to each well, and YFP fluorescence signals were recorded.
The inhibitory activity (%) of each of the test compounds was obtained by the following steps.
(1) Background signals were subtracted from recording values, and the resulting values were converted to relative percentages. The values at 0 second were set to be 100%.
(2) Differences between the values at 3.6 seconds and those of at 7.6 seconds were calculated.
(3) In each row of 96 well plate, the inhibitory activity of each of the test compounds was calculated as percentages. The inhibitory activity of a negative control group to which neither compounds nor ionomycin were treated was set to be 100%, and the inhibitory activity of a positive control group to which ionomycin was treated and compounds were not treated was set to be 0%.
(4) The assay was performed in duplicate or triplicate, and the results were averaged.

SMILES	inhibition at 1 µM	inhibition at 30 µM
O=C(NCc1ccncc1)c1cccc(Nc2ccc(-c3ccccc3)nn2)c1 [Compound 18, 3-[(6-phenylpyridazin-3-yl)amino]-N-[(pyridin-4-yl)methyl]benzamide]	< 30%	30 to 60%
O=C(NCc1ccccn1)c1cccc(Nc2ccc(-c3ccccc3)nn2)c1 [Compound 19, 3-[(6-phenylpyridazin-3-yl)amino]-N-[(pyridin-2-yl)methyl]benzamide]	< 30%	≥ 60%
O=C(NCc1cccnc1)c1cccc(Nc2ccc(-c3ccccc3)nn2)c1 [Compound 20, 3-[(6-phenylpyridazin-3-yl)amino]-N-[(pyridin-3-yl)methyl]benzamide]	30 to 60%	≥ 60%
O=C(NCCCN1CCCC1)c1cccc(Nc2ccc(-c3ccccc3)nn2)c1 [Compound 21, 3-[(6-phenylpyridazin-3-yl)amino]-N-[3-(pyrrolidin-1-yl)propyl]benzamide]	< 30%	< 30%
Cc1ccc(CNC(=O)c2ccc(Nc3ccc(-c4ccccc4)nn3)cc2)o1 [Compound 22, N-[(5-methylfuran-2-yl)methyl]-4-[(6-phenylpyridazin-3-yl)amino]benzamide]		< 30%
Cc1ccc(CNC(=O)c2cccc(Nc3ccc(-c4ccccn4)nn3)c2)o1 [Compound 23, N-[(5-methylfuran-2-yl)methyl]-3-{[6-(pyridin-2-yl)pyridazin-3-yl]amino}benzamide]	< 30%	≥ 60%
O=C(NC1COC1)c1cccc(Nc2ccc(-c3ccccc3)nn2)c1 [Compound 26, N-(oxetan-3-yl)-3-[(6-phenylpyridazin-3-yl)amino]benzamide]	30 to 60%	≥ 60%
O=C(NCCc1ccncc1)c1cccc(Nc2ccc(-c3ccccc3)nn2)c1 [Compound 27, 3-[(6-phenylpyridazin-3-yl)amino]-N-[2-(pyridin-4-yl)ethyl]benzamide]	30 to 60%	≥ 60%
O=C(NC1CCOCC1)c1cccc(Nc2ccc(-c3ccccc3)nn2)c1 [Compound 28, N-(oxan-4-yl)-3-[(6-phenylpyridazin-3-yl)amino]benzamide]	< 30%	≥ 60%
O=C(NCC1CCOCC1)c1cccc(Nc2ccc(-c3ccccc3)nn2)c1 [Compound 34, N-[(oxan-4-yl)methyl]-3-[(6-phenylpyridazin-3-yl)amino]benzamide]	< 30%	≥ 60%
O=C(NCC1COC1)c1cccc(Nc2ccc(-c3ccccc3)nn2)c1 [Compound 35, N-[(oxetan-3-yl)methyl]-3-[(6-phenylpyridazin-3-yl)amino]benzamide]	< 30%	≥ 60%
CCNC(=O)c1cccc(Nc2ccc(-c3ccccc3)nn2)c1 [Compound 37, N-ethyl-3-[(6-phenylpyridazin-3-yl)amino]benzamide]	30 to 60%	≥ 60%
Cc1cnnc(Nc2cccc(C(=O)NCc3ccc(C)o3)c2)c1 [Compound 42, N-[(5-methylfuran-2-yl)methyl]-3-[(5-methylpyridazin-3-yl)amino]benzamide]		< 30%
Cc1ccc(CNC(=O)c2cccc(Nc3ccc(C4CC4)nn3)c2)o1 [Compound 43, 3-[(6-cyclopropylpyridazin-3-yl)amino]-N-[(5-methylfuran-2-yl)methyl]benzamide]	< 30%	
Cc1ccc(Nc2cccc(C(=O)NCc3ccc(C)o3)c2)nn1 [Compound 47, N-[(5-methylfuran-2-yl)methyl]-3-[(6-methylpyridazin-3-yl)amino]benzamide]	< 30%	
Cc1ccc(CNC(=O)c2cccc(Nc3nnccc3C)c2)o1 [Compound 48, N-[(5-methylfuran-2-yl)methyl]-3-[(4-methylpyridazin-3-yl)amino]benzamide]	< 30%	
Cc1ccc(CNC(=O)c2cccc(Nc3ccc(C4CCOCC4)nn3)c2)o1 [Compound 49, N-[(5-methylfuran-2-yl)methyl]-3-{[6-(oxan-4-yl)pyridazin-3-yl]amino}benzamide]	< 30%	
O=C(NCCCc1ccccc1)c1cccc(Nc2ncc(-c3ccccc3)cn2)c1 [Compound 55, N-(3-phenylpropyl)-3-[(5-phenylpyrimidin-2-yl)amino]benzamide]	≥ 60%	
Cc1ccc(CNC(=O)c2cccc(Nc3ccc(CC(C)C)nn3)c2)o1 [Compound 61, N-[(5-methylfuran-2-yl)methyl]-3-{[6-(2-methylpropyl)pyridazin-3-yl]amino}benzamide]	< 30%	
Cc1ccc(CNC(=O)c2cccc(Nc3ccc(C4CCCC4)nn3)c2)o1 [Compound 62, 3-[(6-cyclopentylpyridazin-3-yl)amino]-N-[(5-methylfuran-2-yl)methyl]benzamide]	< 30%	
CC(C)(C)NC(=O)c1cccc(Nc2ccc(-c3ccccc3)nn2)c1 [Compound 65, N-tert-butyl-3-[(6-phenylpyridazin-3-yl)amino]benzamide]	30 to 60%	
Cc1ccc(CNC(=O)c2cccc(Nc3ccc(C4CCN(C(=O)OC(C)(C)C)CC4)nn3)c2)o1 [Compound 69, tert-butyl 4-{6-[(3-{[(5-methylfuran-2-yl)methyl]carbamoyl}phenyl)amino]pyridazin-3-yl}piperidine-1-carboxylate]	< 30%	
Cc1ccc(CNC(=O)c2cccc(Nc3ccc(C4CCN(C)CC4)nn3)c2)o1 [Compound 70, N-[(5-methylfuran-2-yl)methyl]-3-{[6-(1-methylpiperidin-4-yl)pyridazin-3-yl]amino}benzamide]	< 30%	
Cc1ccc(CNC(=O)c2cccc(Nc3ccc(C4CCNCC4)nn3)c2)o1 [Compound 71, N-[(5-methylfuran-2-yl)methyl]-3-{[6-(piperidin-4-yl)pyridazin-3-yl]amino}benzamide]	< 30%	
Cc1ccc(CNC(=O)c2cccc(Nc3ccc(-c4c(C)noc4C)nn3)c2)o1 [Compound 72, 3-{[6-(3,5-dimethyl-1,2-oxazol-4-yl)pyridazin-3-yl]amino}-N-[(5-methylfuran-2-yl)methyl]benzamide]	< 30%	
Cc1ccc(CNC(=O)c2cccc(Nc3ccc(CCc4ccccc4)nn3)c2)o1 [Compound 76, N-[(5-methylfuran-2-yl)methyl]-3-{[6-(2-phenylethyl)pyridazin-3-yl]amino}benzamide]	< 30%	
Cc1ccc(CNC(=O)c2cccc(Nc3ccc(CCc4ccc(F)cc4)nn3)c2)o1 [Compound 77, 3-({6-[2-(4-fluorophenyl)ethyl]pyridazin-3-yl}amino)-N-[(5-methylfuran-2-yl)methyl]benzamide]	< 30%	
COc1ccc(CCNC(=O)c2cccc(Nc3ncc(-c4ccccc4)cn3)c2)cc1 [Compound 83, N-[2-(4-methoxyphenyl)ethyl]-3-[(5-phenylpyrimidin-2-yl)amino]benzamide]	30 to 60%	
CCc1ccc(Nc2cccc(C(=O)NCc3ccc(C)o3)c2)nn1 [Compound 84, 3-[(6-ethylpyridazin-3-yl)amino]-N-[(5-methylfuran-2-yl)methyl]benzamide]	< 30%	
